{
  "source": "PubChem BioAssay (NCI)",
  "experiment_in_all_cases": "NCI anticancer screen, dose series, 48 h",
  "key": {"NCI-H226 lung": {"test_system": "NCI-H226 lung"}, "NCI-H23 lung": {"test_system": "NCI-H23 lung"}, "NCI-H460 lung": {"test_system": "NCI-H460 lung"}, "NCI-H522 lung": {"test_system": "NCI-H522 lung"}, "NCI/ADR-RES ovarian": {"test_system": "NCI/ADR-RES ovarian"}, "OVCAR-3 ovarian": {"test_system": "OVCAR-3 ovarian"}, "OVCAR-4 ovarian": {"test_system": "OVCAR-4 ovarian"}, "OVCAR-5 ovarian": {"test_system": "OVCAR-5 ovarian"}, "OVCAR-8 ovarian": {"test_system": "OVCAR-8 ovarian"}, "PC-3 prostate": {"test_system": "PC-3 prostate"}, "RPMI-8226 leukemia": {"test_system": "RPMI-8226 leukemia"}, "RXF 393 renal": {"test_system": "RXF 393 renal"}, "SF-268 CNS": {"test_system": "SF-268 CNS"}, "SF-295 CNS": {"test_system": "SF-295 CNS"}, "SF-539 CNS": {"test_system": "SF-539 CNS"}, "SK-MEL-2 melanoma": {"test_system": "SK-MEL-2 melanoma"}, "SK-MEL-28 melanoma": {"test_system": "SK-MEL-28 melanoma"}, "SK-MEL-5 melanoma": {"test_system": "SK-MEL-5 melanoma"}, "SK-OV-3 ovarian": {"test_system": "SK-OV-3 ovarian"}, "SN12C renal": {"test_system": "SN12C renal"}, "SNB-19 CNS": {"test_system": "SNB-19 CNS"}, "SNB-75 CNS": {"test_system": "SNB-75 CNS"}, "SW-620 colon": {"test_system": "SW-620 colon"}, "T-47D breast": {"test_system": "T-47D breast"}, "TK-10 renal": {"test_system": "TK-10 renal"}, "U251 CNS": {"test_system": "U251 CNS"}, "UACC-257 melanoma": {"test_system": "UACC-257 melanoma"}, "UACC-62 melanoma": {"test_system": "UACC-62 melanoma"}, "UO-31 renal": {"test_system": "UO-31 renal"}},
  "note": "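Interpolation was linear, between the two tested concentrations surrounding the appropriate level; five concentrations were tested over 48 hours in 96-well plates. Abbreviation: GI50, concentration required for 50% inhibition of growth. TGI: total growth inhibition.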",
  "data": [
    {"molecule": "COc1ccc(-c2nc3cc(C)ccc3n2CC(=O)N=Nc2c(O)[nH]c3ccccc23)cc1", "values": [
      {"measurement": "GI50", "setting": "NCI-H226 lung", "value": 1.88, "unit": "µM"},
      {"measurement": "TGI", "setting": "NCI-H226 lung", "value": 4.13, "unit": "µM"},
      {"measurement": "GI50", "setting": "NCI-H23 lung", "value": 4.15, "unit": "µM"},
      {"measurement": "TGI", "setting": "NCI-H23 lung", "value": 15.8, "unit": "µM"},
      {"measurement": "GI50", "setting": "NCI-H460 lung", "value": 2.17, "unit": "µM"},
      {"measurement": "TGI", "setting": "NCI-H460 lung", "value": 4.87, "unit": "µM"},
      {"measurement": "GI50", "setting": "NCI-H522 lung", "value": 4.68, "unit": "µM"},
      {"measurement": "TGI", "setting": "NCI-H522 lung", "value": 19.5, "unit": "µM"},
      {"measurement": "GI50", "setting": "NCI/ADR-RES ovarian", "value": 2.58, "unit": "µM"},
      {"measurement": "TGI", "setting": "NCI/ADR-RES ovarian", "value": 6.66, "unit": "µM"},
      {"measurement": "GI50", "setting": "OVCAR-3 ovarian", "value": 1.85, "unit": "µM"},
      {"measurement": "TGI", "setting": "OVCAR-3 ovarian", "value": 4.14, "unit": "µM"},
      {"measurement": "GI50", "setting": "OVCAR-4 ovarian", "value": 2.17, "unit": "µM"},
      {"measurement": "TGI", "setting": "OVCAR-4 ovarian", "value": 5.41, "unit": "µM"},
      {"measurement": "GI50", "setting": "OVCAR-5 ovarian", "value": 2.4, "unit": "µM"},
      {"measurement": "TGI", "setting": "OVCAR-5 ovarian", "value": 8.1, "unit": "µM"},
      {"measurement": "GI50", "setting": "OVCAR-8 ovarian", "value": 2.19, "unit": "µM"},
      {"measurement": "TGI", "setting": "OVCAR-8 ovarian", "value": 4.87, "unit": "µM"},
      {"measurement": "GI50", "setting": "PC-3 prostate", "value": 2.42, "unit": "µM"},
      {"measurement": "TGI", "setting": "PC-3 prostate", "value": 7.01, "unit": "µM"},
      {"measurement": "GI50", "setting": "RPMI-8226 leukemia", "value": 6.69, "unit": "µM"},
      {"measurement": "TGI", "setting": "RPMI-8226 leukemia", "value": 28.8, "unit": "µM"},
      {"measurement": "GI50", "setting": "RXF 393 renal", "value": 1.55, "unit": "µM"},
      {"measurement": "TGI", "setting": "RXF 393 renal", "value": 3.71, "unit": "µM"},
      {"measurement": "GI50", "setting": "SF-268 CNS", "value": 2.52, "unit": "µM"},
      {"measurement": "TGI", "setting": "SF-268 CNS", "value": 9.61, "unit": "µM"},
      {"measurement": "GI50", "setting": "SF-295 CNS", "value": 5.4, "unit": "µM"},
      {"measurement": "TGI", "setting": "SF-295 CNS", "value": 18.8, "unit": "µM"},
      {"measurement": "GI50", "setting": "SF-539 CNS", "value": 1.67, "unit": "µM"},
      {"measurement": "TGI", "setting": "SF-539 CNS", "value": 3.08, "unit": "µM"},
      {"measurement": "GI50", "setting": "SK-MEL-2 melanoma", "value": 10.3, "unit": "µM"},
      {"measurement": "TGI", "setting": "SK-MEL-2 melanoma", "value": 23.5, "unit": "µM"},
      {"measurement": "GI50", "setting": "SK-MEL-28 melanoma", "value": 1.71, "unit": "µM"},
      {"measurement": "TGI", "setting": "SK-MEL-28 melanoma", "value": 3.26, "unit": "µM"},
      {"measurement": "GI50", "setting": "SK-MEL-5 melanoma", "value": 2.61, "unit": "µM"},
      {"measurement": "TGI", "setting": "SK-MEL-5 melanoma", "value": 10.6, "unit": "µM"},
      {"measurement": "GI50", "setting": "SK-OV-3 ovarian", "value": 2.32, "unit": "µM"},
      {"measurement": "TGI", "setting": "SK-OV-3 ovarian", "value": 6.06, "unit": "µM"},
      {"measurement": "GI50", "setting": "SN12C renal", "value": 1.71, "unit": "µM"},
      {"measurement": "TGI", "setting": "SN12C renal", "value": 3.83, "unit": "µM"},
      {"measurement": "GI50", "setting": "SNB-19 CNS", "value": 4.11, "unit": "µM"},
      {"measurement": "TGI", "setting": "SNB-19 CNS", "value": 15.3, "unit": "µM"},
      {"measurement": "GI50", "setting": "SNB-75 CNS", "value": 1.55, "unit": "µM"},
      {"measurement": "TGI", "setting": "SNB-75 CNS", "value": 4.33, "unit": "µM"},
      {"measurement": "GI50", "setting": "SW-620 colon", "value": 3.03, "unit": "µM"},
      {"measurement": "TGI", "setting": "SW-620 colon", "value": 16.3, "unit": "µM"},
      {"measurement": "GI50", "setting": "T-47D breast", "value": 3.15, "unit": "µM"},
      {"measurement": "TGI", "setting": "T-47D breast", "value": 17.8, "unit": "µM"},
      {"measurement": "GI50", "setting": "TK-10 renal", "value": 10.5, "unit": "µM"},
      {"measurement": "TGI", "setting": "TK-10 renal", "value": 23.7, "unit": "µM"},
      {"measurement": "GI50", "setting": "U251 CNS", "value": 2.86, "unit": "µM"},
      {"measurement": "TGI", "setting": "U251 CNS", "value": 9.2, "unit": "µM"},
      {"measurement": "GI50", "setting": "UACC-257 melanoma", "value": 2.38, "unit": "µM"},
      {"measurement": "TGI", "setting": "UACC-257 melanoma", "value": 6.76, "unit": "µM"},
      {"measurement": "GI50", "setting": "UACC-62 melanoma", "value": 2.14, "unit": "µM"},
      {"measurement": "TGI", "setting": "UACC-62 melanoma", "value": 6.96, "unit": "µM"},
      {"measurement": "GI50", "setting": "UO-31 renal", "value": 12.2, "unit": "µM"},
      {"measurement": "TGI", "setting": "UO-31 renal", "value": 24.8, "unit": "µM"}
    ]}
  ]
}
